In ChEMBL document CHEMBL3244130, “A manual method for applying the Hansch approach to drug design” (J Med Chem, 1977):

System: not listed separately
Assay: Inhibition of alcohol dehydrogenase (unknown origin) assessed as dissociation constant for the complex of enzyme and DPNH
Assay type: protein assay
Details: Homo sapiens

SMILES	log K
CC(C)c1ccc(C(N)=O)cc1	-1.7
Cc1ccc(C(N)=O)cc1	-1.78
NC(=O)c1ccc(Cl)cc1	-1.93
NC(=O)c1ccccc1	-2.72
COc1ccc(C(N)=O)cc1	-2.2

System: Plasma
Assay: Fibrinolytic activity in human plasma assessed as dissolution of standard clot measured with in 24 hrs
Assay type: functional
Details: not given

SMILES	log(1/C)
O=C(O)[C@H]1C[C@@H]1C#Cc1ccc(Cl)cc1	1.92
O=C(O)[C@H]1C[C@@H]1C#Cc1ccccc1	1.7
Cc1ccc(C#C[C@H]2C[C@@H]2C(=O)O)cc1	1.82
COc1ccc(C#C[C@H]2C[C@@H]2C(=O)O)cc1	1.7

System: not listed separately
Assay: Inhibition of carbonic anhydrase (unknown origin)
Details: Homo sapiens

SMILES	log1/Ki
COc1ccc(S(N)(=O)=O)cc1	0.35
NS(=O)(=O)c1ccc(Cl)cc1	0.72
NS(=O)(=O)c1ccccc1	0.22
NS(=O)(=O)c1ccc(Cl)c(Cl)c1	1.4
Cc1ccc(S(N)(=O)=O)cc1	0.42
NS(=O)(=O)c1ccc([N+](=O)[O-])c(C(F)(F)F)c1	1.85

Species on record: Oryctolagus cuniculus
Assay: Reversible inhibition of guanine deaminase in rabbit liver at pH 7.4
Details: not given

SMILES	log(1/C)
CCOc1ccc(-n2cnc3c(O)nc(N)nc32)cc1	7.01
Nc1nc(O)c2ncn(-c3ccc(OCCCc4ccccc4)cc3)c2n1	7.25

System: Rattus norvegicus
Assay: Antiinflammatory activity in rat pleurisy model assessed as 10X ratio of mean pleural exudate volumes at 1 mmol/kg, po relative to 1 mmol/kg aspirin
Assay type: functional
Details: not given

SMILES	Activity_index
O=C(O)CCn1nnc(-c2cc(Cl)cc(Cl)c2)n1	11.2
O=C(O)CCn1nnc(-c2cccc(Cl)c2)n1	11.2
COc1ccc(-c2nnn(CCC(=O)O)n2)cc1	4.9
Cc1ccc(-c2nnn(CCC(=O)O)n2)cc1	3.1
O=C(O)CCn1nnc(-c2ccc(Cl)cc2)n1	5.9
O=C(O)CCn1nnc(-c2cccc(C(F)(F)F)c2)n1	5.7
Nc1cccc(-c2nnn(CCC(=O)O)n2)c1	0.3
Cc1cccc(-c2nnn(CCC(=O)O)n2)c1	7.9
O=C(O)CCn1nnc(-c2ccc(Cl)c(Cl)c2)n1	6.2
O=C(O)CCn1nnc(-c2ccccc2)n1	8.2
O=C(O)CCn1nnc(-c2cccc(Br)c2)n1	11.2

System: Escherichia coli
Assay: Antibacterial activity against Escherichia coli
Assay type: functional
Details: not given

SMILES	log(1/MIC)
Nc1ccc(S(=O)(=O)NC(=O)c2ccc(Cl)cc2)cc1	5.1
Cc1ccc(C(=O)NS(=O)(=O)c2ccc(N)cc2)cc1	5.4
N#Cc1ccc(C(=O)NS(=O)(=O)c2ccc(N)cc2)cc1	4.05
COc1ccc(C(=O)NS(=O)(=O)c2ccc(N)cc2)cc1C	5.25
COc1ccc(C(=O)NS(=O)(=O)c2ccc(N)cc2)cc1	5.4
CC(C)c1ccc(C(=O)NS(=O)(=O)c2ccc(N)cc2)cc1	5.4
Nc1ccc(S(=O)(=O)NC(=O)c2ccccc2)cc1 [SULFABENZAMIDE]	5.25
Nc1ccc(S(=O)(=O)NC(=O)c2ccc([N+](=O)[O-])cc2)cc1	4.5
CCCc1ccc(C(=O)NS(=O)(=O)c2ccc(N)cc2)cc1	5.18
CCc1ccc(C(=O)NS(=O)(=O)c2ccc(N)cc2)cc1	5.62
Cc1cccc(C(=O)NS(=O)(=O)c2ccc(N)cc2)c1	5.4
Nc1ccc(S(=O)(=O)NC(=O)c2cccc(C(F)(F)F)c2)cc1	4.65

System: not listed separately
Assay: Uncoupling activity of oxidative phosphorylation in rat liver mitochondria
Assay type: functional
Details: not given

SMILES	log(1/C50)
CC(C)c1ccc(C2C(=O)c3ccccc3C2=O)cc1	4.87
O=C1c2ccccc2C(=O)C1c1ccc(Cl)cc1	4.2
Cc1ccc(C2C(=O)c3ccccc3C2=O)cc1	4.1
COc1ccc(C2C(=O)c3ccccc3C2=O)cc1	3.75
CC(C)(C)c1ccc(C2C(=O)c3ccccc3C2=O)cc1	5.03
O=C1c2ccccc2C(=O)C1c1ccccc1	3.74

Species on record: Rattus norvegicus
Assay: Hypoglycemic activity in rat assessed as change in blood glucose level after 4 hrs
Assay type: functional
Set-up: concentration or dose not given beside the values
Details: not given

SMILES	Activity [%]
O=C(C=P(c1ccccc1)(c1ccccc1)c1ccccc1)c1ccc(Cl)cc1	-21
COc1cccc(C(=O)C=P(c2ccccc2)(c2ccccc2)c2ccccc2)c1	-42
COc1ccc(C(=O)C=P(c2ccccc2)(c2ccccc2)c2ccccc2)cc1	-4
Cc1ccc(C(=O)C=P(c2ccccc2)(c2ccccc2)c2ccccc2)cc1	-2
O=C(C=P(c1ccccc1)(c1ccccc1)c1ccccc1)c1ccccc1	-24
Cc1cccc(C(=O)C=P(c2ccccc2)(c2ccccc2)c2ccccc2)c1	-30
O=C(C=P(c1ccccc1)(c1ccccc1)c1ccccc1)c1ccc(Cl)c(Cl)c1	2
O=C(C=P(c1ccccc1)(c1ccccc1)c1ccccc1)c1cccc(Cl)c1	-42
O=C(C=P(c1ccccc1)(c1ccccc1)c1ccccc1)c1cccc(C(F)(F)F)c1	-22
